Assay results reported in paper PMC7471466 (Acta Pharmacologica Sinica, 2020).
Read-outs that look alike come from different tables or passages of the source. Blank lines part the entries; values can stand above or below the molecule they belong to.

Columns and labels:
[1] = patients, high dose (>50 mg MTX/kg) therapy regimens; cited from earlier work
AOX3 mRNA [2] = conditions: rat hepatocytes, 0–20 μM NIM for 24 h
AOX1 [3] = conditions: rat livers, 20, 50, 100 mg·kg−1·d−1 NIM for 5 days, dose-dependent
rat hepatocytes = conditions: read-out: IC50 (toxic to hepatocytes); cited from earlier work
AOX1 mRNA = conditions: rat hepatocytes, 0–20 μM NIM for 24 h
AOX [4] = assay type: cell-based, human; conditions: for increase in 7-OH MTX yields vs control: human hepatocytes
AOX3 mRNA [5] = conditions: rat livers, 20, 50, 100 mg·kg−1·d−1 NIM for 5 days
AOX [6] = conditions: NIM 5–20 μM directly added to the RLC incubation of MTX
[7] = system: sandwich-cultured rat hepatocytes; conditions: concentration-dependent
AOX3 [8] = conditions: rat hepatocytes, 0–20 μM NIM for 24 h, concentration-dependent
AOX1 [9] = conditions: rat hepatocytes, 0–20 μM NIM for 24 h, concentration-dependent
OATPs = conditions: cited from earlier work
AOX3 [10] = conditions: rat livers, 20, 50, 100 mg·kg−1·d−1 NIM for 5 days, dose-dependent
AOX [11] = system: AOX
MRP2 = conditions: cited from earlier work
AOX [12] = assay: AOX activity in rat hepatocytes, 7-OH MTX formation from probe substrate MTX; assay type: cell-based; conditions: for increase in 7-OH MTX yield vs control: then MTX 50 μM
human hepatocytes = conditions: read-out: IC50 (toxic to hepatocytes); cited from earlier work
[13] = NIM-treated rats, 100 mg·kg−1·d−1, 5 days, vs nontreated rats

SMILES: CN(Cc1cnc2nc(N)nc(N)c2n1)c1ccc(C(=O)N[C@@H](CCC(=O)O)C(=O)O)cc1 [MTX, methotrexate]
MTX excreted as 7-OH MTX [1]: ≤ 33%

cellular plus biliary accumulation of MTX [7]: reduced
increase in accumulated excretion of 7-OH MTX in 0–24 h feces (male, Wistar, rat, feces, oral): 2.1 fold
increase in accumulated excretion of 7-OH MTX in 0–24 h urine (male, Wistar, rat, urine, oral): 5.2 fold
increase in accumulated excretion of MTX in 0–24 h urine (male, Wistar, rat, urine, oral): 1.8 fold
accumulated excretion of MTX in 0–24 h feces (rats, 100 mg·kg−1·d−1 NIM for 5 days, then oral MTX 50 mg/kg): no significant change
SMILES: CS(=O)(=O)Nc1ccc([N+](=O)[O-])cc1Oc1ccccc1 [NIM, nimesulide]
AOX3 mRNA level (AOX3 mRNA [2]): did not alter
AOX1 protein level (AOX1 [3]): increased
IC50 (rat hepatocytes): 40 µM
AOX1 mRNA level (AOX1 mRNA): did not alter
increase in 7-OH MTX yields vs control (AOX [4]; 10 μM NIM for 24 h): 1.3 fold
increase in 7-OH MTX yields vs control (AOX [4]; 50 μM NIM for 24 h): 1.7 fold
increase in 7-OH MTX yields vs control (AOX [4]; 100 μM NIM for 24 h): 2.0 fold
increase in 7-OH MTX formation (AOX [4]; primary human hepatocytes, NIM (20 μM) for 24 h): 2.0 fold
AOX3 mRNA level (AOX3 mRNA [5]): no significant alteration
7-OH MTX formation vs incubation containing no NIM (AOX [6]): no significant difference
AOX3 protein level (AOX3 [8]): decreased
AOX1 protein level (AOX1 [9]): increased
inhibition of OATPs (OATPs): inhibitor
AOX3 protein level (AOX3 [10]): decreased
increase in AOX-mediated metabolite from JNJ-38877605 in liver cytosol (AOX [11]; [13]): 3.8 fold
increase in AOX-mediated metabolite from SGX523 in liver cytosol (AOX [11]; [13]): 3.4 fold
increase in AOX-mediated metabolite from phthalazine in liver cytosol (AOX [11]; [13]): 2.5 fold
increase in 7-OH MTX formation in liver cytosol vs vehicle (AOX [11]; rats pretreated with 20 mg·kg−1·d−1 NIM for 5 days): 1.9 fold
increase in 7-OH MTX formation in liver cytosol vs vehicle (AOX [11]; rats pretreated with 50 mg·kg−1·d−1 NIM for 5 days): 3.2 fold
increase in 7-OH MTX formation in liver cytosol vs vehicle (AOX [11]; rats pretreated with 100 mg·kg−1·d−1 NIM for 1 day): 1.0 fold
increase in 7-OH MTX formation in liver cytosol vs vehicle (AOX [11]; rats pretreated with 100 mg·kg−1·d−1 NIM for 3 days): 2.0 fold
increase in 7-OH MTX formation in liver cytosol vs vehicle (AOX [11]; rats pretreated with 100 mg·kg−1·d−1 NIM for 5 days (dose experiment)): 3.7 fold
increase in 7-OH MTX formation in liver cytosol vs vehicle (AOX [11]; rats pretreated with 100 mg·kg−1·d−1 NIM for 5 days (time experiment)): 3.8 fold
inhibition of MRP2 (MRP2): inhibitor
increase in 7-OH MTX yields vs control (AOX [12]; 5 μM NIM for 24 h): 1.3 fold
increase in 7-OH MTX yields vs control (AOX [12]; 10 μM NIM for 24 h): 1.8 fold
increase in 7-OH MTX yield vs control (AOX [12]; 20 μM NIM for 12 h): 1.7 fold
increase in 7-OH MTX yields vs control (AOX [12]; 20 μM NIM for 24 h (concentration experiment)): 3.1 fold
increase in 7-OH MTX yield vs control (AOX [12]; 20 μM NIM for 24 h (induction time experiment)): 2.5 fold
increase in 7-OH MTX yield vs control (AOX [12]; 20 μM NIM for 48 h): 2.7 fold
increase in 7-OH MTX yield vs control (AOX [12]; 20 μM NIM for 72 h): 2.7 fold
IC50 (human hepatocytes): 213 µM
